These results are taken from US10231954B2, “Neurodegenerative therapies” (LYTIX BIOPHARMA AS, priority 2014, dated 2019).

Molecules are shown by their SMILES. Like-named read-outs stand apart in the source and are kept apart here.

Common to all, as to assay type: biochemical
One assay addresses T1, LKB1 (Homo sapiens, UniProt Q15831).
T1 sequence (Q15831 1-433): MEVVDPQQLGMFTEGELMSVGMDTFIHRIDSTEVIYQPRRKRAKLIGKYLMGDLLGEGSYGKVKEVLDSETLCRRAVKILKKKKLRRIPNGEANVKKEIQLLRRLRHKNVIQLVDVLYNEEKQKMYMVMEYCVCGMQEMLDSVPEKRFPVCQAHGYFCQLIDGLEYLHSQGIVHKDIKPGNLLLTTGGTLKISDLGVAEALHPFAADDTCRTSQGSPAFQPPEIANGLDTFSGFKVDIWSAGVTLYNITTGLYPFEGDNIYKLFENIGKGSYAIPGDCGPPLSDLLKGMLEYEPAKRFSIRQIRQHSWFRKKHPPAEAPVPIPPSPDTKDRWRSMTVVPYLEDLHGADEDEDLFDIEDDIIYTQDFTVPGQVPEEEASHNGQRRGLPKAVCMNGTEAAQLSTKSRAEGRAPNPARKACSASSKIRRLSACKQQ
T1 sequence (Q7RTN6 1-431 partner): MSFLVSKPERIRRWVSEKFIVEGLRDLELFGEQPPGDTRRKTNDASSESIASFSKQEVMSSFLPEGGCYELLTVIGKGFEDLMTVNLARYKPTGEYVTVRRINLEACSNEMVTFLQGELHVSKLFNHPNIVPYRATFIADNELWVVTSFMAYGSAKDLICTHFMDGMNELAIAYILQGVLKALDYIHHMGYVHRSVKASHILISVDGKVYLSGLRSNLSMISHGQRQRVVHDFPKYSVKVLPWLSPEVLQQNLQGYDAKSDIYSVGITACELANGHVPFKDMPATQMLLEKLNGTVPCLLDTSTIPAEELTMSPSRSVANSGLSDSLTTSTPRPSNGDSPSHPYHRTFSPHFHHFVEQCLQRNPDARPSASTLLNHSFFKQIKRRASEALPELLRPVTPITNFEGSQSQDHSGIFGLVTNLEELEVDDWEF
T1 sequence (Q9Y376 1-341 partner): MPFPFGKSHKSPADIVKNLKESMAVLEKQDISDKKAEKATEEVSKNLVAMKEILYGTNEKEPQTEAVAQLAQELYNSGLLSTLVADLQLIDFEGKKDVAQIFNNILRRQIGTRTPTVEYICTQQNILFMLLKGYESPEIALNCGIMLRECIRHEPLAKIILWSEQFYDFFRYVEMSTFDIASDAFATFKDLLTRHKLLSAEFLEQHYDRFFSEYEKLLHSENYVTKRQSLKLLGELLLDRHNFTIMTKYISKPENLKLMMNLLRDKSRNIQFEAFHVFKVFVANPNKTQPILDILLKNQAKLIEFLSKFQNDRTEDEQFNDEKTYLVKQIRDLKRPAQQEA
As to the kind of experiment: Kinase profiling LKB1. The following applies: for remaining activity at 100 µM: read-out: residual kinase activity, LKB1. An excerpt:
(§1) Any value less that 25 is considered to be highly significant inhibition.

A further assay concerns CK2. Put plainly: Kinase profiling CK2.
Text: as §1

The next assay concerns the target Src (Homo sapiens, UniProt P12931). Put plainly: Kinase profiling Src. The following applies: for remaining activity at 100 µM: read-out: residual kinase activity, Src.
Text: as §1

The target in another assay is Lck (Homo sapiens, UniProt P06239). Put plainly: Kinase profiling Lck. The conditions noted are these: for remaining activity at 100 µM: read-out: residual kinase activity, Lck.
Text: as §1

The next assay has as its target T2, TTK (Homo sapiens, UniProt P33981).
T2 sequence (P33981 1-857): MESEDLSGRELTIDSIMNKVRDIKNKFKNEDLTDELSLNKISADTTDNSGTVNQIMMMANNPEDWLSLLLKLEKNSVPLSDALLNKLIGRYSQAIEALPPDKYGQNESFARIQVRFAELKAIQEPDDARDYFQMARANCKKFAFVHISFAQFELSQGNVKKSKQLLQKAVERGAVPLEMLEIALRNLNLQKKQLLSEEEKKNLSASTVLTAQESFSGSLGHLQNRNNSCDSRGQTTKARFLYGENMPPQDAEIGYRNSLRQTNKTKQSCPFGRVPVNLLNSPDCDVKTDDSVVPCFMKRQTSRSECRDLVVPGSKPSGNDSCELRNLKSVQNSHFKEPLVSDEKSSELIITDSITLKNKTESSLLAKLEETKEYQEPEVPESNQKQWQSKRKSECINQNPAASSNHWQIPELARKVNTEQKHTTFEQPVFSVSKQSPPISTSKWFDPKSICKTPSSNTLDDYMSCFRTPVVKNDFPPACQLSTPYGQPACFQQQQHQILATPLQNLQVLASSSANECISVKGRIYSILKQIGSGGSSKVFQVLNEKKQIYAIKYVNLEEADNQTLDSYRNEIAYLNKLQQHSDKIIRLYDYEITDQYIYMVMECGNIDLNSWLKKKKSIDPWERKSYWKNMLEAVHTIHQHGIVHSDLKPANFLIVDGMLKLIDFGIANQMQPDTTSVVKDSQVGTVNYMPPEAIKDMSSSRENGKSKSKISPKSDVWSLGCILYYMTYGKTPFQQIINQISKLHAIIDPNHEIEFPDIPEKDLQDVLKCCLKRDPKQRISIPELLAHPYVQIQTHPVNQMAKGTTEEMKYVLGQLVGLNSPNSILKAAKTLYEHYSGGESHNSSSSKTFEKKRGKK
Put plainly: Kinase profiling TTK. The following applies: for remaining activity at 100 µM: read-out: residual kinase activity, TTK.
Text: as §1

Another assay addresses SRPK1 (Homo sapiens, UniProt Q96SB4). Put plainly: Kinase profiling SRPK1. The conditions noted are these: for remaining activity at 100 µM: read-out: residual kinase activity, SRPK1.
Text: as §1

Where [1] appears, read: 100 micromolar inhibitor concentration, 100 is no change.
Where [2] appears, read: 100 micromolar inhibitor, 100 = no change.

Src, sequence (P12931 whole entry, species assumed): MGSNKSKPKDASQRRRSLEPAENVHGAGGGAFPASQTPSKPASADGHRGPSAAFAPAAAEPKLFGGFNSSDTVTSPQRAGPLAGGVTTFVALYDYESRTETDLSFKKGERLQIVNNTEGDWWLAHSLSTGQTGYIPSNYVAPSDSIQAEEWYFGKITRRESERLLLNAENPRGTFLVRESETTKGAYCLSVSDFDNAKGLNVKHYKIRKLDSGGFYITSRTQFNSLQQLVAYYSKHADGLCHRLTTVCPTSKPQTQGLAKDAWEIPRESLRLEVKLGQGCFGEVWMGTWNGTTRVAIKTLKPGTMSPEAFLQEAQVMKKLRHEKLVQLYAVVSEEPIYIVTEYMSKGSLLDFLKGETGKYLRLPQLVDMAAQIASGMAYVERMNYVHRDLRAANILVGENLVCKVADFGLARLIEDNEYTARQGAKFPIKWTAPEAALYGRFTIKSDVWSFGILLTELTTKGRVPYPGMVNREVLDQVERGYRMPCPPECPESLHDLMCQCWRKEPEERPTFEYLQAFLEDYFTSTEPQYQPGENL
Lck, sequence (P06239 whole entry, species assumed): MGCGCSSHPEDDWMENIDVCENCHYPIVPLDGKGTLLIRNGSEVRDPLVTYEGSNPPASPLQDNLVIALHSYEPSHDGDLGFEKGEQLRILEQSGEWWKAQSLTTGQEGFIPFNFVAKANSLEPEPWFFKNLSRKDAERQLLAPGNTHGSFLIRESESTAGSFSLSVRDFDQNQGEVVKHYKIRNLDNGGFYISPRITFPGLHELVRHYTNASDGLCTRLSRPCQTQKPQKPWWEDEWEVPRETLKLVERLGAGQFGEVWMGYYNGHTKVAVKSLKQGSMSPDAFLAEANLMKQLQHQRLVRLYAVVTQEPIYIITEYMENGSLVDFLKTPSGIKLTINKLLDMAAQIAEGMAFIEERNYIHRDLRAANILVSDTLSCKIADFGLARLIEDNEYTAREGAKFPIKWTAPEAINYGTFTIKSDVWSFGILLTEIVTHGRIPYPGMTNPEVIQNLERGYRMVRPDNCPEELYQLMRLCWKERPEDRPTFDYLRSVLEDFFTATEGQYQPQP
SRPK1, sequence (Q96SB4 whole entry, species assumed): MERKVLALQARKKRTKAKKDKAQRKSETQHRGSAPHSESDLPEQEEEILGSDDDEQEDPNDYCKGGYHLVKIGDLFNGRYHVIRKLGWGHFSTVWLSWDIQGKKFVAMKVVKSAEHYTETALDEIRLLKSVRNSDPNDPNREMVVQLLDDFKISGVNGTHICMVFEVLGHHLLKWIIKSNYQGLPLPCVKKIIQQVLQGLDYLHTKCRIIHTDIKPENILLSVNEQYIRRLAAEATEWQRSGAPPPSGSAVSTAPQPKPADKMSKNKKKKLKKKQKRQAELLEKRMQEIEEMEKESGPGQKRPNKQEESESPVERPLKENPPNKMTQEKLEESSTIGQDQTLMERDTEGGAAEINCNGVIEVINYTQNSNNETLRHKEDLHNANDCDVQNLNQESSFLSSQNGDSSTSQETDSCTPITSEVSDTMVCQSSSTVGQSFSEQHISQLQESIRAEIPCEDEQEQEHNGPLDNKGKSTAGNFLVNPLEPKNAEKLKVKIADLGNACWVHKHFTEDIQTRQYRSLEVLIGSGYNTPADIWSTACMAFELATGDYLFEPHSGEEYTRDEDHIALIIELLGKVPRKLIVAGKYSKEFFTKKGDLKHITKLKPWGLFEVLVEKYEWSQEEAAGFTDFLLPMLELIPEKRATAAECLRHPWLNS

As for `O=C(Nc1nc2ccc(F)cc2s1)c1ccccc1` [Compound 03-92], at LKB1 (setting [1]), the “residual kinase activity, LKB1” value was 100. Further, the “residual kinase activity, CK2” value with CK2 (setting [1]) was 90. For the same compound, the “residual kinase activity, Src” value on Src (setting [1]) was 74. At Lck (setting [1]), the “residual kinase activity, Lck” value is listed as 102. Moreover, the “residual kinase activity, TTK” value on TTK (setting [1]) is listed as 47. Further, the “residual kinase activity, SRPK1” value on SRPK1 (setting [1]) is 19.

For the compound `CC(=O)Nc1nc2ccc(F)cc2s1` [Compound 03-94], at LKB1 (setting [1]), the “residual kinase activity, LKB1” value amounted to 46. Further, the “residual kinase activity, CK2” value with CK2 (setting [1]) was found to be 91. Besides, the “residual kinase activity, Src” value at Src (setting [1]) is 76. Further, the “residual kinase activity, Lck” value on Lck (setting [1]) amounted to 92. For the same compound, the “residual kinase activity, TTK” value on TTK (setting [1]) came out at 37. Moreover, the “residual kinase activity, SRPK1” value at SRPK1 (setting [1]) turned out to be 75.

For `COc1ccc2sc(NC(=O)c3ccccc3)nc2c1` [Compound 03-95], the “residual kinase activity, LKB1” value at LKB1 (setting [1]) is listed as 72. In the assay on CK2 (setting [1]), the “residual kinase activity, CK2” value was found to be 78. The “residual kinase activity, Src” value on Src (setting [1]) is recorded as 77. In addition, the “residual kinase activity, Lck” value on Lck (setting [1]) came out at 93. Also, the “residual kinase activity, TTK” value at TTK (setting [1]) amounted to 71. Further, the “residual kinase activity, SRPK1” value at SRPK1 (setting [1]) was 42.

For `COc1ccc2nc(NC(=O)c3ccccc3)sc2c1` [Compound 03-98], the “residual kinase activity, LKB1” value at LKB1 (setting [1]) is 118. The “residual kinase activity, CK2” value in the assay with CK2 (setting [1]) is given as 88. Further, on Src (setting [1]), the “residual kinase activity, Src” value is given as 172. In addition, on Lck (setting [1]), the “residual kinase activity, Lck” value turned out to be 93. Also, the “residual kinase activity, TTK” value at TTK (setting [1]) stood at 18. The “residual kinase activity, SRPK1” value on SRPK1 (setting [1]) was 10.

For the compound `O=C(Nc1nc2ccc(C(F)(F)F)cc2s1)c1ccccc1` [Compound 03-99], at LKB1 (setting [1]), the “residual kinase activity, LKB1” value was determined as 103. Moreover, in the assay with CK2 (setting [1]), the “residual kinase activity, CK2” value worked out at 80. The “residual kinase activity, Src” value on Src (setting [1]) stood at 87. In addition, on Lck (setting [1]), the “residual kinase activity, Lck” value came to 92. Moreover, on TTK (setting [1]), the “residual kinase activity, TTK” value turned out to be 32. Further, on SRPK1 (setting [1]), the “residual kinase activity, SRPK1” value was 61.

On to `O=C(Nc1nc2cc(O)ccc2s1)c1ccccc1` [Compound 03-102], for which the “residual kinase activity, LKB1” value on LKB1 (setting [1]) was determined as 33. Moreover, the “residual kinase activity, CK2” value in the assay on CK2 (setting [1]) is reported as 75. Also, the “residual kinase activity, Src” value at Src (setting [1]) amounted to 30. For the same compound, the “residual kinase activity, Lck” value at Lck (setting [1]) was determined as 98. Also, at TTK (setting [1]), the “residual kinase activity, TTK” value is listed as 30. Also, at SRPK1 (setting [1]), the “residual kinase activity, SRPK1” value is 10.

On to `COC(=O)c1cccc(C(=O)Nc2nc3ccc(C(F)(F)F)cc3s2)c1` [Compound 03-105, Methyl 3-((6-(trifluoromethyl)benzo[d]thiazol-2-yl)carbamoyl)benzoate], for which the remaining activity at 100 µM on LKB1 stood at 91%; at Src, 165%; on Lck it was 99%; on TTK it was 9%; on SRPK1 it was 54%. The “residual kinase activity, CK2” value with CK2 (setting [1]) came to 89.

On to `N#Cc1ccc2nc(NC(=O)c3ccccc3)sc2c1` [Compound 03-106], for which, on LKB1 (setting [1]), the “residual kinase activity, LKB1” value amounted to 107. The “residual kinase activity, CK2” value with CK2 (setting [1]) turned out to be 12. At Src (setting [1]), the “residual kinase activity, Src” value is 85. For the same compound, the “residual kinase activity, Lck” value on Lck (setting [1]) is given as 95. Also, the “residual kinase activity, TTK” value at TTK (setting [1]) worked out at 42. The “residual kinase activity, SRPK1” value at SRPK1 (setting [1]) was found to be 7.

On to `COC(=O)c1cccc(C(=O)Nc2nc3cc(OC)ccc3s2)c1` [Compound 03-108], for which the “residual kinase activity, LKB1” value at LKB1 (setting [1]) amounted to 90. The “residual kinase activity, CK2” value in the assay with CK2 (setting [1]) was 97. The “residual kinase activity, Src” value at Src (setting [1]) is on record as 169. Moreover, the “residual kinase activity, Lck” value at Lck (setting [1]) turned out to be 100. Also, on TTK (setting [1]), the “residual kinase activity, TTK” value is recorded as 94. The “residual kinase activity, SRPK1” value on SRPK1 (setting [1]) was 68.

For the compound `COC(=O)c1cccc(C(=O)Nc2nc3ccc(F)cc3s2)c1` [Compound 03-110], the “residual kinase activity, LKB1” value on LKB1 (setting [1]) is reported as 92. Further, in the assay with CK2 (setting [1]), the “residual kinase activity, CK2” value is on record as 86. Besides, the “residual kinase activity, Src” value at Src (setting [1]) is reported as 178. Further, the “residual kinase activity, Lck” value at Lck (setting [1]) is 93. In addition, at TTK (setting [1]), the “residual kinase activity, TTK” value is listed as 35. Also, the “residual kinase activity, SRPK1” value at SRPK1 (setting [1]) was found to be 55.

With `COc1ccc2sc(NC(=O)c3cccc(C(N)=O)c3)nc2c1` [Compound 03-113], the “residual kinase activity, LKB1” value on LKB1 (setting [1]) was found to be 95. The “residual kinase activity, CK2” value in the assay on CK2 (setting [1]) amounted to 46. At Src (setting [1]), the “residual kinase activity, Src” value was found to be 79. Moreover, the “residual kinase activity, Lck” value at Lck (setting [1]) is given as 111. Further, the “residual kinase activity, TTK” value on TTK (setting [1]) is 95. In addition, the “residual kinase activity, SRPK1” value on SRPK1 (setting [1]) was found to be 82.

`COc1ccc2nc(C(=O)Nc3ccccc3)sc2c1` [Compound 13-03]: the “residual kinase activity, LKB1” value at LKB1 (setting [2]) came to 110. Also, the “residual kinase activity, CK2” value with CK2 (setting [2]) was 97. For the same compound, the “residual kinase activity, Src” value at Src (setting [2]) was determined as 100. Also, the “residual kinase activity, Lck” value on Lck (setting [2]) is 89. Besides, the “residual kinase activity, TTK” value at TTK (setting [2]) turned out to be 108. Further, the “residual kinase activity, SRPK1” value at SRPK1 (setting [2]) turned out to be 86.

For `CC(=O)Nc1nc2ccc([N+](=O)[O-])cc2s1` [Compound 13-10], the remaining activity at 100 µM on LKB1 (setting [1]) is 73%; on Src (setting [1]) it was 85%; at Lck (setting [1]), 79%; on TTK (setting [1]), 55%; on SRPK1 (setting [1]), 62%. The “residual kinase activity, CK2” value in the assay with CK2 (setting [1]) worked out at 51.

For `COc1cccc(NC(=O)Nc2nc3cc(O)ccc3s2)c1` [Compound 13-62], at LKB1 (setting [2]), the “residual kinase activity, LKB1” value was 91. The “residual kinase activity, CK2” value with CK2 (setting [2]) worked out at 24. The “residual kinase activity, Src” value at Src (setting [2]) was determined as 7. The “residual kinase activity, Lck” value on Lck (setting [2]) is given as 11. Also, the “residual kinase activity, TTK” value at TTK (setting [2]) was found to be 25. On SRPK1 (setting [2]), the “residual kinase activity, SRPK1” value amounted to 3.
